Changes are numbered by the printed parent chain.
Assays:
Set-up in all cases: WT (1–553); expressed in transfected cells
GLP-2R R242^ECL1A = molecular target: T1, GLP-2R R242^ECL1A (Homo sapiens, UniProt O95838, R242A); assay: radioligand competition binding, R242^ECL1A; settings: COS-7, R242^ECL1A; [^125I]GLP-2(1–33, M10Y) 10–15 pM, 4 h, 4 °C; mean ± SEM, n ≥ 3 in duplicate
T1 sequence (O95838 1-553 R242A): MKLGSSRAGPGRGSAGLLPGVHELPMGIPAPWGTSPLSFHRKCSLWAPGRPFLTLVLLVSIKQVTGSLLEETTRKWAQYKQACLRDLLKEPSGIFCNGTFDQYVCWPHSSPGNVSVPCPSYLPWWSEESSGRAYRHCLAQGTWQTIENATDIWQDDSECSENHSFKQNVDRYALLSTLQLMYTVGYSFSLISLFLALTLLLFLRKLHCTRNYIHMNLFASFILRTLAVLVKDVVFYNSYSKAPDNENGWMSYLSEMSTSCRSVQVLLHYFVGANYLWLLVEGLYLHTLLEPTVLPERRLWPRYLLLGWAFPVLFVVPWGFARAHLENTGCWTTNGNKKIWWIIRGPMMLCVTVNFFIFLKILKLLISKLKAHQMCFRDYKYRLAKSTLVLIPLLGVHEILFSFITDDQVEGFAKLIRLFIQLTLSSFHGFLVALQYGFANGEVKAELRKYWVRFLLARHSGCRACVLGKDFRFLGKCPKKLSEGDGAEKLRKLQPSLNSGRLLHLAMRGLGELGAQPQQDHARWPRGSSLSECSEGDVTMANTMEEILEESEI
Method: (§1) A stepwise oxidation reaction was performed by addition of 6 aliquots of 5 µL ChloramineT (30 µL/mL) with a 1-min interval during constant stirring. The reaction was terminated by the addition of 400 µL phase A (0.1% trifluoracetic acid) before being fractionated into 1 mL volume by reverse-phase high-performance liquid chromatography (RP-HPLC, Waters 600 SimiPrep system) on a C18 column. The iodinated protein was […] by increasing concentrations of phase B (Acetonitrile + 0.1% TFA) and tested for competitive binding ability.
(§2) One day before transfection, the COS-7 cells were seeded in 75 cm^2 culture flasks (3 million cells/flask) in DMEM, containing 3.9 g/L NaHCO3 and supplemented with 10% FBS, 1% L-glutamine, 180 units/mL penicillin and 45 µg/mL streptomycin. After an overnight culture at 37 °C, 10% CO2 and 95% air humidity, the cells were transiently transfected with different GLP-2R constructs or pcDNA3.1 vector as previously described.[52] Following 24-h incubation, the cells were transferred to Costa® microtiter plates (150,000 cells/well, PerkinElmer) to achieve a 5%–10% specific binding. […] The cells were then washed twice in binding buffer (4 °C), lysed and counted for radioactivity using a Wallac Gamma Counter (PerkinElmer).

GLP-2R Y186^1.47A = molecular target: T2, GLP-2R Y186^1.47A (Homo sapiens, UniProt O95838, Y186A); assay: radioligand competition binding, Y186^1.47A; settings: COS-7, Y186^1.47A; [^125I]GLP-2(1–33, M10Y) 10–15 pM, 4 h, 4 °C; n ≥ 3 in duplicate
T2 sequence (O95838 1-553 Y186A): T1 sequence (O95838 1-553 R242A) with Y186A, A242R
Method: as §1, §2

GLP-2R N247^ECL1A = molecular target: T3, GLP-2R N247^ECL1A (Homo sapiens, UniProt O95838, N247A); assay: radioligand competition binding, N247^ECL1A; settings: COS-7, N247^ECL1A; [^125I]GLP-2(1–33, M10Y) 10–15 pM, 4 h, 4 °C; mean ± SEM, n ≥ 3 in duplicate
T3 sequence (O95838 1-553 N247A): T1 sequence (O95838 1-553 R242A) with A242R, N247A
Method: as §1, §2

Row | Structure (SMILES) | % Binding of WT (GLP-2R R242^ECL1A) [%] | % Binding of WT (GLP-2R Y186^1.47A) | % Binding of WT (GLP-2R N247^ECL1A) [%]
1 | CC[C@H](C)[C@H](NC(=O)[C@H](Cc1ccccc1)NC(=O)[C@H](CC(=O)O)NC(=O)[C@H](CCCNC(=N)N)NC(=O)[C@H](C)NC(=O)[C@H](C)NC(=O)[C@H](CC(C)C)NC(=O)[C@H](CC(N)=O)NC(=O)[C@H](CC(=O)O)NC(=O)[C@H](CC(C)C)NC(=O)[C@@H](NC(=O)[C@@H](NC(=O)[C@H](CC(N)=O)NC(=O)[C@H](CCSC)NC(=O)[C@H](CCC(=O)O)NC(=O)[C@H](CC(=O)O)NC(=O)[C@H](CO)NC(=O)[C@H](Cc1ccccc1)NC(=O)[C@H](CO)NC(=O)CNC(=O)[C@H](CC(=O)O)NC(=O)CNC(=O)[C@@H](N)Cc1c[nH]cn1)[C@@H](C)O)[C@@H](C)CC)C(=O)N[C@@H](CC(N)=O)C(=O)N[C@@H](Cc1c[nH]c2ccccc12)C(=O)N[C@@H](CC(C)C)C(=O)N[C@H](C(=O)N[C@@H](CCC(N)=O)C(=O)N[C@H](C(=O)N[C@@H](CCCCN)C(=O)N[C@H](C(=O)N[C@H](C(=O)N[C@@H](CC(=O)O)C(=O)O)[C@@H](C)O)[C@@H](C)CC)[C@@H](C)O)[C@@H](C)CC [Teduglutide] | 5.1 ± 1.5 | N.B. | 135.2 ± 4.4
2 | CC[C@H](C)[C@H](NC(=O)[C@H](Cc1ccccc1)NC(=O)[C@H](CC(=O)O)NC(=O)[C@H](CCCNC(=N)N)NC(=O)[C@H](C)NC(=O)[C@H](C)NC(=O)[C@H](CC(C)C)NC(=O)[C@H](CC(N)=O)NC(=O)[C@H](CC(=O)O)NC(=O)[C@H](CC(C)C)NC(=O)[C@@H](NC(=O)[C@@H](NC(=O)[C@H](CC(N)=O)NC(=O)[C@H](CCSC)NC(=O)[C@H](CCC(=O)O)NC(=O)[C@H](CC(=O)O)NC(=O)[C@H](CO)NC(=O)[C@H](Cc1ccccc1)NC(=O)[C@H](CO)NC(=O)CNC(=O)[C@H](CC(=O)O)NC(=O)[C@H](C)NC(=O)[C@@H](N)Cc1c[nH]cn1)[C@@H](C)O)[C@@H](C)CC)C(=O)N[C@@H](CC(N)=O)C(=O)N[C@@H](Cc1c[nH]c2ccccc12)C(=O)N[C@@H](CC(C)C)C(=O)N[C@H](C(=O)N[C@@H](CCC(N)=O)C(=O)N[C@H](C(=O)N[C@@H](CCCCN)C(=O)N[C@H](C(=O)N[C@H](C(=O)N[C@@H](CC(=O)O)C(=O)O)[C@@H](C)O)[C@@H](C)CC)[C@@H](C)O)[C@@H](C)CC [Human GLP-2 (1–33)] | 4.2 ± 0.6 | N.B. | 130.7 ± 4.5
